Results as given in patent US10730887B2, “Compound containing tricyclic heteroaryl group” (Hangzhou Innogate Pharma Co., Ltd., priority 2016, dated 2020).

Legend:
Assay type in all cases: biochemical
[1] = target: EGFR (Homo sapiens, UniProt P00533); test: EGFR kinase activity inhibition, Caliper mobility shift assay
Method: (§1) EGFR and EGFR (T790M/L858R) protein kinase activities were determined using the Caliper mobility shift assay. The compound was dissolved in DMSO and diluted with kinase buffer (EGFR (T790M/L858R): 50 mM HEPES at pH 7.5, 0.0015% Brij-35, 10 mM MgCl2, 2 mM DTT; EGFR: pH 7.5 50 mM HEPES, 0.0015% Brij-35, 10 mM MgCl2, 10 mM MnCl2, 2 mM DTT), 5 μL of 5 times the final concentration of the compound (10% DMSO) was added to a 384-well plate. Add 10 μL of 2.5-fold enzyme (using EGFR and EGFR (1790M/L858R), respectively) and incubate for 10 minutes at room temperature, then add 10 μL of 2.5-fold substrate (Peptide FAM-P22 and ATP) solution. After incubation at 28° C. for 60 minutes, the reaction was stopped by adding 25 μL of stop solution (100 mM HEPES, 0.015% Brij-35, 0.2% Coating Reagent #3, 50 mM EDTA, pH 7.5). Conversion rate data was read on a Caliper EZ Reader II (Caliper Life Sciences). The conversion rate was converted into inhibition rate data (% inhibition rate=(max−conversion rate)/(max−min)*100). Where max is the conversion of the DMSO control and min is the conversion of the enzyme-free control Curves were plotted with compound concentration and inhibition rate on the horizontal and vertical coordinates, and the curve was fitted using XLFit excel add-in version 4.3.1 software and IC50 was calculated.

[2] = target: EGFR (T790M/L858R) (Homo sapiens, UniProt P00533, L858R/T790M); test: EGFR (T790M/L858R) kinase activity inhibition, Caliper mobility shift assay
Method: as §1

[3] = target: SYK (Homo sapiens, UniProt P43405); test: Syk kinase activity inhibition, Caliper mobility shift assay
Method: SYK protein kinase activity was determined using the Caliper mobility shift assay. The compound was dissolved in DMSO and diluted with kinase buffer (20 mM HEPES, 0.01% Triton X-100, 5 mM MgCl2, 1 mM MnCl2, 2 mM DTT), and 5 μL of 5 times final concentration was added to the 384-well plate Compound (10% DMSO). After adding 10 μL of 2.5-fold enzyme (with SYK) solution, incubate for 10 minutes at room temperature, and then add 10 μL of 2.5-fold substrate (Peptide FAM-P22 and ATP) solution. Incubate at 28° C. for 30 minutes, then stop the reaction by adding 25 μL of stop solution (100 mM HEPES, 0.015% Brij-35, 0.2% Coating Reagent #13, 50 mM EDTA, pH 7.5). Conversion rate data was read on a Caliper EZ Reader II (Caliper Life Sciences) The conversion rate was converted into inhibition rate data (% inhibition rate=(max−conversion rate)/(max−min)*100). Where max is the conversion of the DMSO control and min is the conversion of the enzyme-free control. Curves were plotted with compound concentration and inhibition rate on the horizontal and vertical coordinates, and the curve was fitted using XLFit excel add-in version 4.3.1 software and IC50 was calculated.

[4] = target: Jak2 (Homo sapiens, UniProt O60674); test: Jak2 kinase activity inhibition, Caliper Reader
Method: Kinase JAk1 and Jak2 enzyme inhibition IC50 evaluation experiments: The buffer was configured with the following components: 50 mM HEPES, pH 7.5, 0.00015% Brij-35. Compounds were placed in a concentration gradient in 100% DMSO and diluted to 10% DMSO with buffer and added to 384 well plates. For example, when the initial concentration of the compound is […], it is made into 12.5 μM with 100% DMSO, and diluted by 5 or 6 concentrations, and then diluted 10-fold with buffer to prepare an intermediate dilution of the compound containing 10% DMSO. Transfer 5 μL, to 384-well plate. The Jak1 and Jak2 enzymes were diluted to the optimal concentration with the following buffer: 50 mM HEPES, pH 7.5, 0.00015% Brij-35, 2 mM DTT. Transfer 10 μL to a 384-well plate and incubate with the compound for 10-15 minutes. The substrate was diluted to the optimal concentration with the following buffer: 50 mM HEPES, pH 7.5, 0.00015% Brij-35, 10 mM MgCl2, adenosine triphosphate at Km. The reaction was initiated by adding 10 μL to a 384-well plate and reacted at 28° C. for 1 hour. The conversion rate was then read using a Caliper Reader and the inhibition rate was calculated. The formula is as follows: Percent inhibition=(max−conversion)/(max−min)*100. Where max is the conversion of the DMSO control and min is the conversion of the enzyme-free control. Fit the IC50 value with XLFit excel add-in version 5.4.0.8. Fitting formula: Y=Bottom+(Top−Bottom)/(1+(IC50/X)^HillSlope).

[5] = target: T1, FLT3 (Homo sapiens, UniProt P36888); test: FLT3 kinase activity inhibition, Caliper mobility shift assay
T1 sequence (P36888 27-993): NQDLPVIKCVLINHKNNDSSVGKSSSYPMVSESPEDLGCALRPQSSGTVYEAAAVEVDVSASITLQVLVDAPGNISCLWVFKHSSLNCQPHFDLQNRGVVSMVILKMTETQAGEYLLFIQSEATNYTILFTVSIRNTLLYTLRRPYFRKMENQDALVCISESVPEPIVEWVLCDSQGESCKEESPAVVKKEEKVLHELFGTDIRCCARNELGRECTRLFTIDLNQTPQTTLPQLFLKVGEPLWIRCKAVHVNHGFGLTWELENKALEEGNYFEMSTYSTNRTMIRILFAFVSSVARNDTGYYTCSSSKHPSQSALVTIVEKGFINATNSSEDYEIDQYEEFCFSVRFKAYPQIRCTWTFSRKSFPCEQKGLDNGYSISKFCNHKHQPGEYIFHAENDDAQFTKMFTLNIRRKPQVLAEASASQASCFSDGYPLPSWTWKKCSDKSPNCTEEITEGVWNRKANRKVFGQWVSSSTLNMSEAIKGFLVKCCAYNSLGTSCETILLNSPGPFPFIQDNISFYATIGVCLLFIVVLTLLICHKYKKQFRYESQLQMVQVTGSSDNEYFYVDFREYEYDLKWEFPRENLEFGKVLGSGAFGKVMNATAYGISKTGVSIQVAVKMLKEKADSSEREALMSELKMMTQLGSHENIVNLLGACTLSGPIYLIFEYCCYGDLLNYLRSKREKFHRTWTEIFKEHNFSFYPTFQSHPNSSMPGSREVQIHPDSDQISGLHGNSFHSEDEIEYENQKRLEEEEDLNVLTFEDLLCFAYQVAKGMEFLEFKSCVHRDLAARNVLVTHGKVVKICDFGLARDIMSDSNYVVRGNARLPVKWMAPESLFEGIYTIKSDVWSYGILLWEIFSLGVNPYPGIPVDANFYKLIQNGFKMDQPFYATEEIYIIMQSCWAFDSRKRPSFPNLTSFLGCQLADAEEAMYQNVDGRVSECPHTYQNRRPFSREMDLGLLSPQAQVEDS
Method: FLT3 protein kinase activity was measured using the Caliper mobility shift assay. The compound was dissolved in DMSO and diluted with a kinase buffer (50 mM HEPES, pH 7.5, 0.0015% Brij-35, 2 mM DTT), and 5 μL of a 5-fold final concentration of the compound (10% DMSO) was added to a 384-well plate. After adding 10 μL of 2.5-fold FLT3 enzyme solution, incubate for 10 minutes at room temperature, and then add 10 μL of a 2.5-fold substrate (FAM-labeled polypeptide and ATP) solution. After incubation at 28° C. for 60 minutes, the reaction was stopped by adding 25 μL of stop solution (100 mM HEPES, 0.015% Brij-35, 0.2% Coating Reagent #3, 50 mM EDTA, pH 7.5). Conversion rate data was read on a Caliper EZ Reader II (Caliper Life Sciences). The conversion rate was converted into inhibition rate data (% inhibition rate=(max−conversion rate)/(max−min)*100). Where max is the conversion of the DMSO control and min is the conversion of the enzyme-free control Curves were plotted with compound concentration and inhibition rate on the horizontal and vertical coordinates, and the curve was fitted using XLFit excel add-in version 4.3.1 software and IC50 was calculated.

Jak2, sequence (O60674 whole entry, species assumed): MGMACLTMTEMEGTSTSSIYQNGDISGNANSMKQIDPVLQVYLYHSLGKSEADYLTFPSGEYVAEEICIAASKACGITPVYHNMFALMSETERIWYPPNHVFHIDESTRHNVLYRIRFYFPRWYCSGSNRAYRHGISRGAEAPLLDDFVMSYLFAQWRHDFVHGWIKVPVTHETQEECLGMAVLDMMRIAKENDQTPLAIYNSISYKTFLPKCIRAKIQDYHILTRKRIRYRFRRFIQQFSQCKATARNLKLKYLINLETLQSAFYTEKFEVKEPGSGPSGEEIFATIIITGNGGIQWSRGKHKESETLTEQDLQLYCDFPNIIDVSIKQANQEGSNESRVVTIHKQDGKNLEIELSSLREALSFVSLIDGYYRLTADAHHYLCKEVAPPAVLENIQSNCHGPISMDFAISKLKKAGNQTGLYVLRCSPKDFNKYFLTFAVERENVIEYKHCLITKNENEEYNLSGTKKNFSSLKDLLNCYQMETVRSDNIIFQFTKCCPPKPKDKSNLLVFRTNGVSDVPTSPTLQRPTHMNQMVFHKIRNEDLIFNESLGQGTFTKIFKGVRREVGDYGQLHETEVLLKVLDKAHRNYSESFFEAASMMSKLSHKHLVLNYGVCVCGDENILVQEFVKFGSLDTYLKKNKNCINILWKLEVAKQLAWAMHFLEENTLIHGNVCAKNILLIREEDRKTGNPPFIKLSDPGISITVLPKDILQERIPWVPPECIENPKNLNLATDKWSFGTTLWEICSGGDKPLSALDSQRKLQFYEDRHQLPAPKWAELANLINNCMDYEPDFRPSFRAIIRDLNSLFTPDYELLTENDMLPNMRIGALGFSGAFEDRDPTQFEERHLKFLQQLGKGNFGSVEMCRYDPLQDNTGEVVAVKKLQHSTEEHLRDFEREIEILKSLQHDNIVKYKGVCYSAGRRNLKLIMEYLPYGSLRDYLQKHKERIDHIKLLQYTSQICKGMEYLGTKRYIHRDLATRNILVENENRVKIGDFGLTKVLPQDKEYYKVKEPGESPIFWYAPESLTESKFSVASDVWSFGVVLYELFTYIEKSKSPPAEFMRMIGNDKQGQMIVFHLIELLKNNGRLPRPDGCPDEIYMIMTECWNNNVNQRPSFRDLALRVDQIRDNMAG
EGFR, sequence (P00533 25-1210): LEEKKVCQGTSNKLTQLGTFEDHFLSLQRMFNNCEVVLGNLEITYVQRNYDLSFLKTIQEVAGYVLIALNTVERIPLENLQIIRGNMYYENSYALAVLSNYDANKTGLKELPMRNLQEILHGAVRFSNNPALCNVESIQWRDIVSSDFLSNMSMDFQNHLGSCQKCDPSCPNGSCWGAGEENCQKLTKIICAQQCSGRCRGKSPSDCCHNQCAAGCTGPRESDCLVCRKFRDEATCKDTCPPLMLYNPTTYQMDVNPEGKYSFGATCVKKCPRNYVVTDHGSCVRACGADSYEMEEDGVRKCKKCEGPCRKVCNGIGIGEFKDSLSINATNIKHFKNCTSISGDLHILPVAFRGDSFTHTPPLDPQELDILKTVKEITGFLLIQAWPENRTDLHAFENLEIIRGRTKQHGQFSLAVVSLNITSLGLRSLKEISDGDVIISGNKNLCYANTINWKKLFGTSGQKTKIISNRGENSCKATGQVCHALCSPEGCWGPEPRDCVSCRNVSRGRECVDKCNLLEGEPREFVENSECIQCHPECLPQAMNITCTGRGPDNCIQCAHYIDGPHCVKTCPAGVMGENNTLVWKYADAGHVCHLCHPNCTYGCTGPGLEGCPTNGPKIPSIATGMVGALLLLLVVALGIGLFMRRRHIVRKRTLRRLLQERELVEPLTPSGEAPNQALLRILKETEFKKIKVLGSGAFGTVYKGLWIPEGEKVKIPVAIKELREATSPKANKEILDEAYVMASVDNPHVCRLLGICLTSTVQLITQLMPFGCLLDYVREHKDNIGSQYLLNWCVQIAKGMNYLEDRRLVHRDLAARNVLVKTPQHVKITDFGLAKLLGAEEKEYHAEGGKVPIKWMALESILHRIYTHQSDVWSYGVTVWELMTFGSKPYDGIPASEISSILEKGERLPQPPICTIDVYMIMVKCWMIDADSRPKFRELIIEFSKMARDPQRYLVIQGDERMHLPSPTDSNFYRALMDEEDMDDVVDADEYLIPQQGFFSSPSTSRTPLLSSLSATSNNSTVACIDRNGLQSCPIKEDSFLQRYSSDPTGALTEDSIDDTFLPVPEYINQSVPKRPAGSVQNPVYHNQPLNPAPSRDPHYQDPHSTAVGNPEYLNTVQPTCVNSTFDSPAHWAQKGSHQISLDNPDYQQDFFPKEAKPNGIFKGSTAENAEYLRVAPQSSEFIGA
EGFR (T790M/L858R), sequence (P00533 25-1210 T790M/L858R): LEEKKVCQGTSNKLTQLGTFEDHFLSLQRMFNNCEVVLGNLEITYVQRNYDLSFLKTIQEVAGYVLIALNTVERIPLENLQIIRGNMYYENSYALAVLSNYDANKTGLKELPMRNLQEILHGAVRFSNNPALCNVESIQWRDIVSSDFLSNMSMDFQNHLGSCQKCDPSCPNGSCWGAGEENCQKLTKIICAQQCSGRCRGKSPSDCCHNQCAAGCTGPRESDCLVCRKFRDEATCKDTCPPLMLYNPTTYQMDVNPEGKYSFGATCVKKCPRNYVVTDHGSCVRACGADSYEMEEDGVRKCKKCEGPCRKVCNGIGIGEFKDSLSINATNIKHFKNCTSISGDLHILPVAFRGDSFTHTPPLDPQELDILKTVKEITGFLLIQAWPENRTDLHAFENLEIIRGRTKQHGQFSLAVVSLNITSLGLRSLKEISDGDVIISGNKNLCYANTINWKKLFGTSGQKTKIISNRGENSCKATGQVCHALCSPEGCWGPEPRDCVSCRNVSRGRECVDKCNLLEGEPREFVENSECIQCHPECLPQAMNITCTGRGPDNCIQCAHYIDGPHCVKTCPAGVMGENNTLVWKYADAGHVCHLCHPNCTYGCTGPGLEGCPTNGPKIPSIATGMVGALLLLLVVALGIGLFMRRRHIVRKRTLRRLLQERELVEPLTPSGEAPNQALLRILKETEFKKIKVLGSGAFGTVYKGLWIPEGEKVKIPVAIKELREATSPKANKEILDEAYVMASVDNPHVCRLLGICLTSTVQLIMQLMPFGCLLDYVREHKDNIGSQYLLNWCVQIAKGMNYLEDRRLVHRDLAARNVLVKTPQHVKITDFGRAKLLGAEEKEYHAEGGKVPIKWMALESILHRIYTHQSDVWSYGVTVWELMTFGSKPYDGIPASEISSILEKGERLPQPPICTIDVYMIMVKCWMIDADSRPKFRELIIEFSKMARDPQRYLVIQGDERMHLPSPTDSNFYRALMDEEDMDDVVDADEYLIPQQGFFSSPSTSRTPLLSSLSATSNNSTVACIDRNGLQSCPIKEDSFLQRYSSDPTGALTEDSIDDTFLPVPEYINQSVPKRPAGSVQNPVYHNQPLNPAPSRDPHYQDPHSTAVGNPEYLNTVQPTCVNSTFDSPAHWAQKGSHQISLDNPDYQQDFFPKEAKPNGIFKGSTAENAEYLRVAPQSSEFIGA

Row | Compound | IC50 [1] | IC50 [2] | IC50 [3] | IC50 [4] | IC50 [5]
1 | C=CC(=O)Nc1cccc(Nc2nc(Nc3ccc4c(c3)OC[C@H]3CN(C)CCN43)ncc2C(F)(F)F)c1 [Compound A1R] | < 100 nM | < 1 nM |  |  | 
2 | C=CC(=O)Nc1cccc(Nc2nc(Nc3ccc4c(c3)OC[C@@H]3CN(C)CCN43)ncc2C(F)(F)F)c1 [Compound A1S] | < 100 nM | < 1 nM |  |  | 
3 | C=CC(=O)Nc1cccc(Nc2nc(Nc3ccc4c(c3)OCC3CN(C)CCN43)ncc2C(F)(F)F)c1 (centres unmarked) [Compound A1] | < 100 nM | < 10 nM |  |  | 
4 | C=CC(=O)Nc1cccc(Nc2nc(Nc3ccc4c(c3)OC[C@H]3CN(C(C)=O)CCN43)ncc2C(F)(F)F)c1 [Compound A2R] | < 100 nM | < 10 nM |  |  | 
5 | C=CC(=O)Nc1cccc(Nc2nc(Nc3ccc4c(c3)OC[C@@H]3CN(C(C)=O)CCN43)ncc2C(F)(F)F)c1 [Compound A2S] | < 100 nM | < 10 nM |  |  | 
6 | C=CC(=O)Nc1cccc(Nc2nc(Nc3ccc4c(c3)OC[C@H]3CNCCN43)ncc2C(F)(F)F)c1 [Compound A3R] | < 50 nM | < 1 nM |  |  | 
7 | C=CC(=O)Nc1cccc(Nc2nc(Nc3ccc4c(c3)OC[C@@H]3CNCCN43)ncc2C(F)(F)F)c1 [Compound A3S] |  | < 1 nM |  |  | 
8 | C=CC(=O)Nc1cccc(Nc2nc(Nc3ccc4c(c3)OC[C@H]3CN(C(=O)C(F)(F)F)CCN43)ncc2C(F)(F)F)c1 [Compound A4R] | < 100 nM | < 10 nM |  |  | 
9 | C=CC(=O)Nc1cccc(Nc2nc(Nc3ccc4c(c3)OC[C@H]3CN(CC)CCN43)ncc2C(F)(F)F)c1 [Compound A5R] | < 100 nM | < 1 nM |  |  | 
10 | C=CC(=O)Nc1cccc(Nc2nc(Nc3ccc4c(c3)OC[C@H]3CN(C5CC5)CCN43)ncc2C(F)(F)F)c1 [Compound A6R] | < 100 nM | < 10 nM |  |  | 
11 | C=CC(=O)Nc1cccc(Nc2nc(Nc3ccc4c(c3)OC[C@H]3CN(CC(F)(F)F)CCN43)ncc2C(F)(F)F)c1 [Compound A7R] | < 500 nM | < 50 nM |  |  | 
12 | C=CC(=O)Nc1cccc(Nc2nc(Nc3ccc4c(c3)OC[C@H]3COCCN43)ncc2C(F)(F)F)c1 [Compound A8R] | < 100 nM | < 10 nM |  |  | 
13 | C=CC(=O)Nc1cccc(Nc2nc(Nc3ccc4c(c3)OC[C@@H]3COCCN43)ncc2C(F)(F)F)c1 [Compound A8S] | < 100 nM | < 10 nM |  |  | 
14 | C=CC(=O)Nc1cccc(Nc2nc(Nc3ccc4c(c3)OC[C@H]3CN(C)CC(=O)N43)ncc2C(F)(F)F)c1 [Compound A9R] | < 100 nM | < 10 nM |  |  | 
15 | C=CC(=O)Nc1cccc(Nc2nc(Nc3ccc4c(c3)OC[C@@H]3CN(C)CC(=O)N43)ncc2C(F)(F)F)c1 [Compound A9S] | < 100 nM | < 10 nM |  |  | 
16 | CC(C)(C)OC(=O)N1CCN2c3ccc(Nc4ncc(C(N)=O)c(NC5CC5)n4)cc3OC[C@H]2C1 [Compound C7R] |  |  | < 50 nM | < 50 nM | 
17 | NC(=O)c1cnc(Nc2ccc3c(c2)OC[C@H]2CNCCN32)nc1NC1CC1 [Compound C8R] |  |  | < 50 nM | < 10 nM | 
18 | NC(=O)c1cnc(Nc2ccc3c(c2)OC[C@H]2CN(S(=O)(=O)c4ccccc4)CCN32)nc1NC1CC1 [Compound C9R] |  |  | < 10 nM | < 50 nM | 
19 | CS(=O)(=O)N1CCN2c3ccc(Nc4ncc(C(N)=O)c(NC5CC5)n4)cc3OC[C@H]2C1 [Compound C11R] |  |  | < 10 nM | < 10 nM | 
20 | CC(C)S(=O)(=O)N1CCN2c3ccc(Nc4ncc(C(N)=O)c(NC5CC5)n4)cc3OC[C@H]2C1 [Compound C12R] |  |  | < 10 nM | < 10 nM | 
21 | NC(=O)c1cnc(Nc2ccc3c(c2)OC[C@H]2CN(S(=O)(=O)C4CCOCC4)CCN32)nc1NC1CC1 [Compound C13R] |  |  | < 10 nM | < 10 nM | 
22 | CN(C)S(=O)(=O)N1CCN2c3ccc(Nc4ncc(C(N)=O)c(NC5CC5)n4)cc3OC[C@H]2C1 [Compound C14R] |  |  | < 10 nM | < 10 nM | 
23 | C=CS(=O)(=O)N1CCN2c3ccc(Nc4ncc(C(N)=O)c(NC5CC5)n4)cc3OC[C@H]2C1 [Compound C15R] |  |  | < 50 nM | < 50 nM | 
24 | NC(=O)c1cnc(Nc2ccc3c(c2)OC[C@H]2CN(S(N)(=O)=O)CCN32)nc1NC1CC1 [Compound C16R] |  |  | < 50 nM | < 50 nM | 
25 | CN1CCN2c3ccc(Nc4ncc(C(N)=O)c(NC5CC5)n4)cc3C(=O)CC2C1 (centres unmarked) [Compound C17] |  |  | < 50 nM | < 50 nM | 
26 | NC(=O)c1cnc(Nc2ccc3c(c2)OCC2COCCN32)nc1NC1CC1 (centres unmarked) [Compound C18R] |  |  | < 50 nM | < 50 nM | 
27 | CCc1nc(C(N)=O)c(Nc2ccc3c(c2)OC[C@H]2COCCN32)nc1NC1CCOCC1 [Compound D2R] |  |  |  |  | < 10 nM
28 | CCc1nc(C(N)=O)c(Nc2ccc3c(c2)OC[C@@H]2COCCN32)nc1NC1CCOCC1 [Compound D2S] |  |  |  |  | < 10 nM
